Measurements published in patent US7544676B2, “Sulfamoyl benzamides and methods of their use” (Adolor Corporation, priority 2005, dated 2009).

Key:
CB1 receptor [1] = molecular target: T1, CB1 receptor (Homo sapiens, UniProt P21554); experiment: hCB1-mediated stimulation of [35S]GTPγS binding; format: biochemical; details: in vitro functional assay
T1 construct: expressed in transfected cells; host or cells: CHO-K1
Description: (§1) EC50 values in functional assays were also derived from automated nonlinear regression analysis of sigmoidal titration curves using the three-parameter modification of the four-parameter equation.
Chinese hamster ovary cells (CHO-K1), stably transfected with either hCB1 or hCB2, were washed two times with cold PBS, scraped from 500 cm^2 tissue culture plates, and pelleted by centrifugation at 1000×g for 10 min. The supernatant was discarded and the pellet was resuspended in Tris assay buffer (50 mM Tris HCl, pH 7.8, containing 1.0 mM EGTA, 5.0 mM MgCl2, […], and […] aprotinin), homogenized with a Polytron homogenizer (Brinkmann) at a setting of 1 for 20 sec and centrifuged at 38,000×g for 20 min at 4° C. […]
(§2) hCB1-Mediated stimulation of [^35S]GTPγS binding was measured in a mixture containing 100-150 pM [^35S]GTPγS, 150 mM NaCl, 45 mM MgCl2, […], 0.4 mM DTT, 1 mM EGTA, 1 mg/mL fatty acid free BSA, 25 μg of membrane protein and agonist in a total volume of 250 μL of buffer A in 96 well Basic Flashplates (Perkin Elmer). After incubation at room temperature for 2 hours the plates were centrifuged at 800×g at 4° C. for 5 min and the radioactivity bound to the membranes was determined by scintillation spectrometry using the Topcount (Perkin Elmer).

CB2 receptor [2] = molecular target: T2, CB2 receptor (Homo sapiens, UniProt P34972); experiment: hCB2-mediated [35S]GTPγS binding; format: biochemical
T2 construct: expressed in transfected cells; host or cells: CHO-K1
Description: as §1
(§3) Chinese hamster ovary cells (CHO-K1), stably transfected with either hCB1 or hCB2, were washed two times with cold PBS, scraped from 500 cm^2 tissue culture plates, and pelleted by centrifugation at 1000×g for 10 min. […]
as §2
hCB2-Mediated [35 S]GTPγS binding was measured in the same way except the assay mixture contained […] and the incubation time was 6 hours. […] After incubation at 30° C. for 2 hours, the plates were centrifuged at 800×g at 4° C. for 5 min and the radioactivity bound to the membrane was determined by scintillation spectrometry using the Topcount (Perkin Elmer).

CB1 receptor [3] = molecular target: T1, CB1 receptor; experiment: Inhibition of [3H]CP55940 binding to cloned human CB1 receptor membranes
Description: (§4) Ki values in receptor binding experiments were determined by Cheng-Prusoff correction of IC50 values derived from automated nonlinear regression analysis of sigmoidal titration curves using a three-parameter modification (slope set to 1.0) of the four-parameter equation described in Cheng, Y.-C. and W. H. Prusoff, Biochem. Pharmacol. 22:3099-3108 (1973) and DeLean et al., Am. J. Physiol. 235:E97-E102 (1978).
as §3
(§5) Binding assays were performed by incubating 0.2-0.6 nM (34,000-100,000 dpm) [^3H]CP55940 with membranes prepared from cells expressing cloned human CB1 or CB2 receptors in buffer A (50 mM Tris HCl, pH 7.0, 5.0 mM MgCl2, 1.0 mM EGTA and 1.0 mg/mL fatty acid free bovine serum albumin). […] The filters were rinsed 6 times with one mL of cold wash buffer (50 mM Tris HCl, pH 7.0, 5.0 mM MgCl2, 1.0 mM EGTA and 0.75 mg/mL fatty acid free bovine serum albumin), 30 μL of MicroScint 20 was added to each filter and the radioactivity on the filters determined by scintillation spectroscopy. Nonspecific binding was determined in the presence of 10 μM WIN55212-2.

CB2 receptor [4] = molecular target: T2, CB2 receptor; experiment: Inhibition of [3H]CP55940 binding to cloned human CB2 receptor membranes
Description: as §4, §3, §5

T1 sequence (P21554 whole entry): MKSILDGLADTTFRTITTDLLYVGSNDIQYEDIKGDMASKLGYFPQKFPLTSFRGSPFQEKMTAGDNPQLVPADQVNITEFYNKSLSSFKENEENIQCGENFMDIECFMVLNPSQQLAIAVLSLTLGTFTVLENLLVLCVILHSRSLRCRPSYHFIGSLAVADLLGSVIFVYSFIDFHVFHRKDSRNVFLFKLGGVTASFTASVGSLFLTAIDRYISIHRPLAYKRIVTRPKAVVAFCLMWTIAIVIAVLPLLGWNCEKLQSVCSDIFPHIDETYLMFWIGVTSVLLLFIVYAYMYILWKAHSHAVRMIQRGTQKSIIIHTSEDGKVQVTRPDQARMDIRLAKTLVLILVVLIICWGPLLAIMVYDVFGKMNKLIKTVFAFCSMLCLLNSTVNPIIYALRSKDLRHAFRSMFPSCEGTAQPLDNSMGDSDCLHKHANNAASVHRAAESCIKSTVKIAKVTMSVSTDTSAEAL
T2 sequence (P34972 whole entry): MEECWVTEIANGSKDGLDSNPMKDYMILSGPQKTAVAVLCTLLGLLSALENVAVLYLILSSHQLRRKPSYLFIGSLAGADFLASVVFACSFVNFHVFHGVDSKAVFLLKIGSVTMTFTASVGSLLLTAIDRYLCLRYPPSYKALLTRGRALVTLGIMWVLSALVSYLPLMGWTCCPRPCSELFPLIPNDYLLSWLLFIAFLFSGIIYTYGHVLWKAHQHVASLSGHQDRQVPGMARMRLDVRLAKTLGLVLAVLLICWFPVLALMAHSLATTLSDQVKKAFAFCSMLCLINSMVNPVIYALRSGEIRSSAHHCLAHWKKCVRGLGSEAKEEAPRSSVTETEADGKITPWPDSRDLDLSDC

Row | SMILES | in vitro CB1 receptor agonist activity (CB1 receptor [1]) | EC50 (CB2 receptor [2]; agonist mode, read-out: in vitro CB2 receptor agonist potency (EC50)) [nM] | Ki (CB1 receptor [3]) [nM] | Ki (CB2 receptor [4]) [nM] | IC50 (CB2 receptor [2]; antagonist mode, read-out: in vitro CB2 receptor antagonist potency (IC50)) [nM]
1 | CNc1ccc(C(=O)N[C@@H]2C(C)(C)[C@@H]3CC[C@@]2(C)C3)cc1S(=O)(=O)N(C)C [Compound 1X, 3-(N,N-dimethylsulfamoyl)-4-(methylamino)-N-((1S,2S,4R)-1,3,3-trimethylbicyclo[2.2.1]heptan-2-yl)benzamide] | no in vitro CB1 receptor agonist activity | 18.6 | 1930 | 8.9 | –
2 | COCCNc1ccc(C(=O)NC2C(C)(C)[C@@H]3CC[C@@]2(C)C3)cc1S(=O)(=O)N1CCOCC1 (stereo partly drawn) [Compound 2D, 4-(2-methoxyethylamino)-3-(morpholinosulfonyl)-N-((1S,4R)-1,3,3-trimethylbicyclo[2.2.1]heptan-2-yl)benzamide] | – | – | 1310 | 1.6 | 8.5
